Measurements published in BindingDB's records for doi:10.1124/jpet.105.084343 (University of Rochester, 2005).

Experiments:
[1] = target: Kappa-type opioid receptor (Homo sapiens, UniProt P41145)
Mu-type opioid receptor = Mu-type opioid receptor (Homo sapiens, UniProt P35372)
[2] = target: Delta-type opioid receptor (Homo sapiens, UniProt P41143)
Delta-type opioid receptor, sequence (P41143 whole entry): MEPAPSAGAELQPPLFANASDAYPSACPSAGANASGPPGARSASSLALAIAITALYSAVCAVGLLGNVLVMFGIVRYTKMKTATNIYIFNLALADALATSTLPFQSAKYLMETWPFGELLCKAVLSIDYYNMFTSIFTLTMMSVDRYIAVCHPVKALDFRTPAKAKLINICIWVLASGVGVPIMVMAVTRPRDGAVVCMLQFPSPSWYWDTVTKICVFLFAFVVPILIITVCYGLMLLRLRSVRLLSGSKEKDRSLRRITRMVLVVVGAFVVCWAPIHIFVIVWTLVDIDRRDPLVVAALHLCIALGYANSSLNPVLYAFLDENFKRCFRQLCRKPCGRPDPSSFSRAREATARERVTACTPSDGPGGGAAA

Kappa-type opioid receptor, sequence (P41145 whole entry): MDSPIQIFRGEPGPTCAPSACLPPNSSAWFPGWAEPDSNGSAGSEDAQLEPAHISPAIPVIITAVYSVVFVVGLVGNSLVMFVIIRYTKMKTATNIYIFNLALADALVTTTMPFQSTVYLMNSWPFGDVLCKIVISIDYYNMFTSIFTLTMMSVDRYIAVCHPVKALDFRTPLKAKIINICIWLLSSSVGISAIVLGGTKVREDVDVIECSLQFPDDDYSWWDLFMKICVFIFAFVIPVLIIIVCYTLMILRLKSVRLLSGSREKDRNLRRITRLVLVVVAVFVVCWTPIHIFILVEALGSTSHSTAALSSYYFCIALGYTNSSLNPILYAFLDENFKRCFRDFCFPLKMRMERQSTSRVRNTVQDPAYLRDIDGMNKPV
Mu-type opioid receptor, sequence (P35372 whole entry): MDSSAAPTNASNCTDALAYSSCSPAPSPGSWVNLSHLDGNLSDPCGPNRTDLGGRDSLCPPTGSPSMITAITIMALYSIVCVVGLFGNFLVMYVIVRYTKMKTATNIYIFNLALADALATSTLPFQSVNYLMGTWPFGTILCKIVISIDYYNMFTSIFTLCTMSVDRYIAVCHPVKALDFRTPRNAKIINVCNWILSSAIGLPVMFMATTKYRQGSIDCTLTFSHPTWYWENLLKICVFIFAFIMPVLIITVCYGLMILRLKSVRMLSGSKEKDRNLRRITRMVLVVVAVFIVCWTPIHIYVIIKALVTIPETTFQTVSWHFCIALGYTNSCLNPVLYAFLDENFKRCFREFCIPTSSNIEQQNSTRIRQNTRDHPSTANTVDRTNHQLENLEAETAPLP

| SMILES | Ki [1] | Ki (Mu-type opioid receptor) | Ki [2] |
| --- | --- | --- | --- |
| Oc1ccc2c(c1)[C@@]13CCCC[C@H]1C(C2)N(CC1CCC1)CC3 [MCL-101] | 0.079 µM | – | – |
| O=C(/C=C/C(=O)Oc1ccc2c(c1)[C@]13CCCCC1[C@H](C2)N(CC1CCC1)CC3)Oc1ccc2c(c1)[C@]13CCCCC1[C@H](C2)N(CC1CCC1)CC3 (some centres undefined) [MCL-145] | 0.078 µM | 0.2 µM | 9.4 µM |
